Laboratory results reported in article PMC11357992, “Non-invasive mapping of systemic neutrophil dynamics upon cardiovascular injury” (Nature Cardiovascular Research, 2023).
“And” between values parts separate entries of the source, which are not always exact repeats. Equal values may be shown once. Where no end group is shown, it is not given here. Side-chain parts run from the residue outwards. rhodamine‑labelled PEGylated perfluoro‑15‑crown‑5 ether nanoemulsion = not defined here; carboxyfluorescein = N-terminal fluorescence label (CF)

Columns and labels:
human neutrophils = experiment: ROS release of human neutrophils; assay type: cell-based; settings: for ROS release of human neutrophils, raw data (panel C): single samples #1-#3
Experimental: A total of 5 × 10^6 human neutrophils were incubated in 10 ml DMEM with or without 1 µg ml^−1 peptide or 50 µl ml^−1 emulsion. At distinct time points, cells were pelleted, and 1 ml of the supernatant was immediately frozen at −80 °C. Subsequently, the amount of ROS was determined by chemiluminescence analysis. […] After centrifugation, 80 µl supernatant was used to determine ROS by UPLC measurement (Waters Acquity Bio H-Class with 2475 FLD Detector). To this end, gradients A and B (0.1% trifluoroacetic acid in 1 l water and acetonitrile, respectively) at a flow rate of 0.26 ml min^−1 at 17 °C were used. Dihydroethidium was excited and detected at 480 nm and 580 nm, respectively.

[1] = test system: CD177+ and CD177- neutrophils; experiment: hNPPFC uptake by CD177+ and CD177- neutrophil subpopulations, flow cytometry; assay type: cell-based, human; settings: latter = CD177+
Experimental: Fig. 5 Specific targeting of human neutrophils by ^hNPPFCs. a, Uptake of ^hNPPFCs (red) or ^ConPFCs (gray) by human lymphocytes, monocytes or neutrophils over time as determined by flow cytometry. **P < 0.01. b, For MRI analysis, human immune cells were incubated with ^hNPPFCs (top row) or ^ConPFCs (bottom row). After several washing steps, cells were purified by density gradient centrifugation and analyzed by MRI. First column, ^1H MR image of the centrifugation tube with the cell layer (arrow) on top of the dark Percoll layer; second column, ^19F MR image of the same area; third column, merge of both datasets. Quantification of the ^19F data is shown on the right. c, hNP was conjugated to the pH-sensitive dye pHrodo, incubated with neutrophils at 4 °C (blue) and 37 °C (red) and analyzed by flow cytometry. d, Confocal microscopy of neutrophils incubated with ^hNPPFCs (top) or ^ConPFCs (bottom). Fluorescence signals of PFCs (rhodamine; Rho) as well as ligands (carboxyfluorescein; CF) were recorded, and nuclei were counterstained with 4′,6-diamidino-2-phenylindole (DAPI) (blue). […] At distinct time points, uptake of ^hNPPFCs was determined by flow cytometry. f, Human blood immune cells were incubated with ^hNPPFCs followed by staining for CD177 and flow cytometry. […]

[2] = test system: circulating lymphocytes, monocytes and neutrophils; experiment: In vivo mNPPFC uptake by circulating immune cells 1 h after injection (Matrigel-LPS or PBS); parameters: species or system mouse; in vivo uptake by circulating lymphocytes, Ctrl, raw data / in vivo uptake by circulating lymphocytes, LPS, raw data / in vivo uptake by circulating monocytes, Ctrl, raw data / in vivo uptake by circulating monocytes, LPS, raw data / in vivo uptake by circulating neutrophils, Ctrl, raw data / in vivo uptake by circulating neutrophils, LPS, raw data: unit not given here
Experimental: (§1) To induce defined inflammatory foci, we adopted a recently developed model of localized subcutaneous inflammation. To this end, ice-cold Matrigel (Corning) was doped with LPS (1 µg µl^−1; Salmonella typhimurium, Sigma-Aldrich) and subcutaneously (s.c.) implanted into the neck of the mice. Twenty-four hours after implanting the plug, neutrophils were isolated from the blood and incubated ex vivo with ^mNPPFCs or ^ConPFCs. In separate experiments, 24 h after implantation, ^mNPPFCs or ^ConPFCs were injected intravenously, and immune cells were isolated from the blood. In further experiments, 1 d after plug injection, mice received 1 mmol per kg BW ^mNPPFCs, and, 24 h later, the bone marrow was analyzed by ^1H/^19F MRI. Thereafter, mice were killed, and neutrophils were isolated from the bone marrow for determination of cell numbers. In each case, immune cells were analyzed by flow cytometry.
Mice were kept in anesthesia (1.5% isoflurane) on a warming plate, and 1 mmol per kg BW ^mNPPFCs or ^ConPFCs were injected i.v. into the tail vein. One hour after injection, blood was collected from the vena cava, and immune cells were isolated. For in vivo uptake studies in the bone marrow, mice were treated as described above and killed 2 h later to isolate neutrophils from the bone marrow and analyzed by flow cytometry.

bone marrow neutrophils = experiment: In vivo mNPPFC labeling of bone marrow neutrophils after Matrigel-LPS, 1H/19F MRI; parameters: species or system mouse; settings: individual experiments; for total amount of 19F in the bone marrow (1H/19F MRI): mNPPFCs 1 mmol per kg BW i.v. 24 h after implantation, MRI another 24 h later; for 19F signal normalized to the number of neutrophils in the bone marrow: neutrophil number by flow cytometry directly after MRI
Experimental: as §1
Slice packages were placed in sagittal orientation to cover the complete bone marrow in the tibia and femur in both legs using the following scan details: ^1H RARE, TR = 2,000 ms, FOV = 4.00 × 2.56 cm^2, matrix = 256 × 256, ST = 1 mm, tAcq = 1 min; ^19F RARE, TR = 2,500 ms, FOV = 4.00 × 2.56 cm^2, matrix = 64 × 64, ST = 3 mm, tAcq = 10 min.

[3] = mouse, Ctrl (PBS), 1 h after injection, single animals #1-#5
[4] = mouse, Matrigel-LPS, 1 h after injection, single animals #1-#3

| Substance | impact on human neutrophil ROS release (human neutrophils; 1 µg ml^−1 peptide or 50 µl ml^−1 emulsion) | ROS release of human neutrophils, raw data (panel C) (human neutrophils; time point 1) | ROS release of human neutrophils, raw data (panel C) (human neutrophils; time point 3) | ROS release of human neutrophils, raw data (panel C) (human neutrophils; time point 6) | ROS release of human neutrophils, raw data (panel C) (human neutrophils; time point 24) | labeling of CD177− versus CD177+ neutrophils [1] | incorporation into circulating neutrophils from LPS-challenged versus healthy mice ([2]; 1 h after intravenous application) | in vivo uptake by circulating lymphocytes, Ctrl, raw data [2, 3] | in vivo uptake by circulating monocytes, Ctrl, raw data [2, 3] | in vivo uptake by circulating neutrophils, Ctrl, raw data [2, 3] | in vivo uptake by circulating lymphocytes, LPS, raw data [2, 4] | in vivo uptake by circulating monocytes, LPS, raw data [2, 4] | in vivo uptake by circulating neutrophils, LPS, raw data [2, 4] | total amount of 19F in the bone marrow (1H/19F MRI) (bone marrow neutrophils; Ctrl: Matrigel-PBS plug) | 19F signal normalized to the number of neutrophils in the bone marrow (bone marrow neutrophils; Ctrl: Matrigel-PBS plug) | total amount of 19F in the bone marrow (1H/19F MRI) (bone marrow neutrophils; LPS: Matrigel-LPS plug) | 19F signal normalized to the number of neutrophils in the bone marrow (bone marrow neutrophils; LPS: Matrigel-LPS plug) |
| --- | --- | --- | --- | --- | --- | --- | --- | --- | --- | --- | --- | --- | --- | --- | --- | --- | --- |
| hNPPFCs: PEGylated rhodamine-labeled perfluorocarbon nanoemulsion coupled with human neutrophil-specific peptide hNP (carboxyfluorescein-DLVTSKLQVGGGC; also: C-terminal Cys coupled via maleimide-PEG2000-DSPE to rhodamine-labelled perfluorocarbon nanoemulsion) | neither ^hNPPFCs nor the free peptide had any impact on human neutrophil ROS release | 1725.82 and 1480.41 and 1396.67 | 1373.8 and 1515.29 and 1254.87 | 2382.05 and 1474.31 and 1302.37 | 1643.61 and 1455.28 | only the latter population could be labeled |  |  |  |  |  |  |  |  |  |  |  |
| mNPPFCs: PEGylated rhodamine-labeled perfluoro-15-crown-5 ether nanoemulsion (maleimide PFCs) coupled with murine neutrophil-specific peptide mNP (carboxyfluorescein-DFYKPMPNLRITGGGC([maleimide‑PEG2000‑DSPE-rhodamine‑labelled PEGylated perfluoro‑15‑crown‑5 ether nanoemulsion]); reading uncertain; also: printed as DFYKPMPNLRIT-GGG-C) |  |  |  |  |  |  | much stronger | 51.1 and 39.2 and 30.6 and 43.1 and 40.6 | 176 and 127 and 129 and 184 and 145 | 400 and 394 and 676 and 677 and 545 | 38.8 and 38.9 and 26.2 | 150 and 223 and 453 | 3695 and 4794 and 6465 | 505497 and 895713 and 688103 and 1.24E+06 and 1.03E+06 | 5335.62 and 16297.54 and 4781.15 and 12000.14 and 6924.34 | 1632050.00 and 894870.00 and 1335810.00 and 1304290.00 and 940933.00 | 47748.80 and 38144.50 and 144567.64 and 78101.02 and 94661.27 |
